Patent publication US10053468B2, “Heterocyclic compound” (TAKEDA PHARMACEUTICAL COMPANY LIMITED, priority 2013, dated 2018)
Where two headings read alike, the source gives them in different places.

Legend:
RORγt [1] = target: T1, RORγt (Homo sapiens, UniProt P51449); assay: Jurkat reporter test (human IL-17 ROR response element luciferase, RORγt vector); format: cell-based; conditions: read-out: Luminescence level inhibitory rate at test compound 3 μM (%)
T1 sequence (P51449 1-497 isoform P51449-2): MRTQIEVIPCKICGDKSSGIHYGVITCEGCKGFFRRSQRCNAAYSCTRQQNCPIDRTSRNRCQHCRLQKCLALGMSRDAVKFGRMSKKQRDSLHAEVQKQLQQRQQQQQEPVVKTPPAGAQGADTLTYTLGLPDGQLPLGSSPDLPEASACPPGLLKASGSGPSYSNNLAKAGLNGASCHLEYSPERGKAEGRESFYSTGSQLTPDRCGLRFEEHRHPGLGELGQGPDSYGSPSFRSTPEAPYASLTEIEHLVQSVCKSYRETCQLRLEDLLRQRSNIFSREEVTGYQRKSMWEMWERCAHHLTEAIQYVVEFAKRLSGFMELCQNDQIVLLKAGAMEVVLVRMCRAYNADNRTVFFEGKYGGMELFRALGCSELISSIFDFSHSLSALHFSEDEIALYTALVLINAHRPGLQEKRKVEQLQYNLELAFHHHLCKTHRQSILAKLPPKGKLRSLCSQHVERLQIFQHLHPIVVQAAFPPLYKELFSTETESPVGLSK
Outline: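 Jurkat cells were electroporated (1350 V, 10 ms, 3 pulses) with reporter constructs, then cultured overnight with compound in RPMI containing 10% lipid-reduced FCS, 10 mM HEPES pH 7.5 and 5 μM lovastatin. Luciferase was quantified by Bright-Glo luminescence after 10 min at room temperature.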

RORγt [2] = target: T1, RORγt; assay: Cofactor recruitment test (Alpha Screen, biotinylated SRC-1 peptide); format: biochemical; conditions: read-out: Signal value inhibitory rate at test compound 1 μM (%)
Protocol: Cofactor Recruitment Test
Cofactor recruitment test was performed by Alpha Screen (Histidine Detection Kit, PerkinElmer) method. First, a test compound was diluted with an assay buffer (50 mM Tris-HCl (pH 7.5), 50 mM KCl, 1 mM DTT, 0.1% BSA) and added to a 384 well plate by 5 μL. […] The mixture was stood in a dark place for 1 hr, and the signal value was measured by Envision (PerkinElmer).

RORγt [3] = target: T1, RORγt; assay: RORγt binding test using fluorescent-labeled synthetic ligand (TR-FRET); conditions: read-out: Binding inhibitory rate of fluorescent-labeled synthetic ligand to RORγt at test compound 1 μM (%)
Outline: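 His-tagged RORγt (diluted to 240 nM) with compound, then fluorescent synthetic ligand (diluted to 12 μM), 20 min at room temperature, followed by Tb anti-His antibody (diluted to 8 nM), 20 min.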

RORγt [4] = target: T1, RORγt; assay: RORγt binding test using fluorescent-labeled cholesterol (TR-FRET); conditions: read-out: Binding inhibitory rate of fluorescent-labeled cholesterol to RORγt at test compound 1 μM (%)
Outline: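 TR-FRET displacement with His-tagged RORγt, BODIPY-cholesterol and Tb-anti-His antibody in Tris-HCl pH 7.5, 100 mM NaCl, 1 mM DTT, 0.1% BSA. Compound, RORγt and labelled cholesterol were incubated 20 min at RT, then antibody was added for another 20 min.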

[5] = test compound 3 μM, Jurkat cells

Row | Structure (SMILES) | inhibition at 3 µM (RORγt [1]; [5]) [%] | inhibition at 1 µM (RORγt [2]) [%] | inhibition at 1 µM (RORγt [3]) [%] | inhibition at 1 µM (RORγt [4]) [%] | inhibition at 3 µM (RORγt [1]; Jurkat) [%]
1 | COc1ccc2c(c1)CCN(C(=O)c1cc(O)no1)[C@H]2C(=O)Nc1ccc(C(C)(C)C)c(F)c1 [Example 13, (1R)-N-(4-tert-butyl-3-fluorophenyl)-2-((3-hydroxy-1,2-oxazol-5-yl)carbonyl)-6-methoxy-1,2,3,4-tetrahydroisoquinoline-1-carboxamide] | 101 | 80.4 | 102 | 100 | –
2 | COc1ccc2c(c1)CCN(C(=O)Cc1cc(O)no1)[C@H]2C(=O)Nc1ccc([Si](C)(C)C)c(C#N)c1 [Example 72, (1R)-N-(3-cyano-4-(trimethylsilyl)phenyl)-2-((3-hydroxy-1,2-oxazol-5-yl)acetyl)-6-methoxy-1,2,3,4-tetrahydroisoquinoline-1-carboxamide] | – | 94 | 102 | 104 | 100
3 | COc1ccc2c(c1)CCN(C(=O)CCc1cc(O)no1)[C@H]2C(=O)Nc1cc(F)c2c(c1)CCC2(C)C [Example 63, (1R)-N-(7-fluoro-1,1-dimethyl-2,3-dihydro-1H-inden-5-yl)-2-(3-(3-hydroxy-1,2-oxazol-5-yl)propanoyl)-6-methoxy-1,2,3,4-tetrahydroisoquinoline-1-carboxamide] | 99.9 | 70 | 102 | 100 | –
4 | COc1ccc2c(c1)CCN(C(=O)[C@@H]1CNC(=O)C1)[C@H]2C(=O)Nc1ccc(C(C)(C)C)c(F)c1 [Example 25, (1R)-N-(4-tert-butyl-3-fluorophenyl)-6-methoxy-2-(((3S)-5-oxopyrrolidin-3-yl)carbonyl)-1,2,3,4-tetrahydroisoquinoline-1-carboxamide] | 102 | 85.8 | 101 | 102 | –
5 | COc1ccc2c(c1)CCN(C(=O)Cc1cc(O)no1)[C@H]2C(=O)Nc1cc(F)c(C(C)(C)C)c(F)c1 [Example 43, (1R)-N-(4-tert-butyl-3,5-difluorophenyl)-2-((3-hydroxy-1,2-oxazol-5-yl)acetyl)-6-methoxy-1,2,3,4-tetrahydroisoquinoline-1-carboxamide] | 101 | 88.3 | 102 | 102 | –
6 | CC[Si](C)(C)c1c(F)cc(NC(=O)[C@H]2c3ccc(OC)nc3CCN2C(=O)CCCC(=O)O)cc1F [Example 114, 5-((5R)-5-((4-(ethyl(dimethyl)silyl)-3,5-difluorophenyl)carbamoyl)-2-methoxy-7,8-dihydro-1,6-naphthyridin-6(5H)-yl)-5-oxopentanoic acid] | – | 98 | 102 | 103 | 101
7 | COCc1ccc2c(c1)CCN(C(=O)CCCC(=O)O)[C@H]2C(=O)Nc1ccc([Si](C)(C)C)c(F)c1 [Example 110, 5-((1R)-1-((3-fluoro-4-(trimethylsilyl)phenyl)carbamoyl)-6-(methoxymethyl)-3,4-dihydroisoquinolin-2 (1H)-yl)-5-oxopentanoic acid] | – | 100 | 102 | 102 | 103
8 | COCc1ccc2c(c1)CCN(C(=O)CCCC(=O)O)[C@H]2C(=O)Nc1cc(F)c([Si](C)(C)C)c(F)c1 [Example 130, 5-((1R)-1-((3,5-difluoro-4-(trimethylsilyl)phenyl)carbamoyl)-6-(methoxymethyl)-3,4-dihydroisoquinolin-2(1H)-yl)-5-oxopentanoic acid] | – | 100 | 102 | 102 | 104
9 | CCOCC(C)(C)c1c(F)cc(NC(=O)[C@H]2c3ccc(OC)cc3CCN2C(=O)CCCC(=O)O)cc1F [Example 172, 5-((1R)-1-((4-(1-ethoxy-2-methylpropan-2-yl)-3,5-difluorophenyl)carbamoyl)-6-methoxy-3,4-dihydroisoquinolin-2(1H)-yl)-5-oxopentanoic acid] | 97 | 82 | 101 | 101 | –
10 | COc1ccc2c(c1)CCN(C(=O)Cc1cccnc1)[C@H]2C(=O)Nc1cc(F)c(C(C)(C)C(=O)N2CCCC2)c(F)c1 [Example 105, (1R)-N-(3,5-difluoro-4-(2-methyl-1-oxo-1-(pyrrolidin-1-yl)propan-2-yl)phenyl)-6-methoxy-2-(pyridin-3-ylacetyl)-1,2,3,4-tetrahydroisoquinoline-1-carboxamide] | 101 | 100 | 101 | 103 | –
11 | COc1ccc2c(c1)CCN(C(=O)c1cc(O)no1)[C@H]2C(=O)Nc1ccc(C(C)(C)COCC(F)F)c(F)c1 [Example 75, (1R)-N-(4-(1-(2,2-difluoroethoxy)-2-methylpropan-2-yl)-3-fluorophenyl)-2-((3-hydroxy-1,2-oxazol-5-yl)carbonyl)-6-methoxy-1,2,3,4-tetrahydroisoquinoline-1-carboxamide] | 96 | 78 | 102 | 101 | –
12 | COCc1ccc2c(c1)CCN(C(=O)c1cc(O)no1)[C@H]2C(=O)Nc1cc(F)c(C(C)(C)COC)c(F)c1 [Example 137, (1R)-N-(3,5-difluoro-4-(1-methoxy-2-methylpropan-2-yl)phenyl)-2-((3-hydroxy-1,2-oxazol-5-yl)carbonyl)-6-(methoxymethyl)-1,2,3,4-tetrahydroisoquinoline-1-carboxamide] | 103 | 98 | 102 | 102 | –
13 | CCOc1ccc2c(n1)CCN(C(=O)Cc1cc(O)no1)[C@H]2C(=O)Nc1cc(F)c2c(c1)CCC2(C)C [Example 147, (5R)-2-ethoxy-N-(7-fluoro-1,1-dimethyl-2,3-dihydro-1H-inden-5-yl)-6-((3-hydroxy-1,2-oxazol-5-yl)acetyl)-5,6,7,8-tetrahydro-1,6-naphthyridine-5-carboxamide] | 101 | 89 | 101 | 101 | –
14 | COc1ccc2c(n1)CCN(C(=O)c1cc(O)no1)[C@H]2C(=O)Nc1cc(F)c2c(c1)CCC2(C)C [Example 115, (5R)-N-(7-fluoro-1,1-dimethyl-2,3-dihydro-1H-inden-5-yl)-6-((3-hydroxy-1,2-oxazol-5-yl)carbonyl)-2-methoxy-5,6,7,8-tetrahydro-1,6-naphthyridine-5-carboxamide] | 102 | 89 | 101 | 103 | –
15 | COc1ccc2c(c1)CCN(C(=O)Cc1cc(O)no1)[C@H]2C(=O)Nc1ccc(C(C)(C)C)c(C#N)c1 [Example 65, (1R)-N-(4-tert-butyl-3-cyanophenyl)-2-((3-hydroxy-1,2-oxazol-5-yl)acetyl)-6-methoxy-1,2,3,4-tetrahydroisoquinoline-1-carboxamide] | 100 | 98 | 101 | 102 | –
16 | CCOc1ccc2c(c1)CCN(C(=O)Cc1cc(O)no1)[C@H]2C(=O)Nc1cc(F)c(C(C)(C)COCC(F)F)c(F)c1 [Example 155, (1R)-N-(4-(1-(2,2-difluoroethoxy)-2-methylpropan-2-yl)-3,5-difluorophenyl)-6-ethoxy-2-((3-hydroxy-1,2-oxazol-5-yl)acetyl)-1,2,3,4-tetrahydroisoquinoline-1-carboxamide] | 99 | 84 | 101 | 101 | –
17 | COCc1ccc2c(c1)CCN(C(=O)c1cc(O)no1)[C@H]2C(=O)Nc1ccc([Si](C)(C)C)c(F)c1 [Example 107, (1R)-N-(3-fluoro-4-(trimethylsilyl)phenyl)-2-((3-hydroxy-1,2-oxazol-5-yl)carbonyl)-6-(methoxymethyl)-1,2,3,4-tetrahydroisoquinoline-1-carboxamide] | – | 100 | 102 | 103 | 102
